Laboratory results published in publication PMC9608995 (Pharmaceutics, 2022).
Marks after values point to notes of the source that are not given here.

How the values were obtained:
H. nana [1] = experiment: Worm burden and worm reduction in H. nana-infected rats; assay type: in vivo, Hymenolepis nana; conditions: for Percentage reduction of worm count: rats; for Worm count: worm numbers per rat, 23rd day, n = 10
Source text: (§1) Mature H. nana worms were gathered from naturally-infected Mus musculus and kept in outbred rats. Thereafter, collection of the eggs was executed from infected rats that were euthanized on day 16th post infection. Infectious shell-free eggs were produced from the gravid segments of adult worms via agitating the egg suspension with 3 mm-diameter glass beads shortly prior to use.
(§2) The rats were males weighing 120–150 g and were free of parasitic infections. The rats were housed in a specific pathogen-free environment under standard conditions (22 ± 2 °C and 50–60% humidity) and were supplied food and water ad libitum. Rats of groups I-V were inoculated with shell-free eggs via the oral route using a stomach tube. Each animal received 3000 eggs in 0.1 mL of PBS pH 7.4. At day 16th post infection, a fecal examination was carried out and egg count per gram was detected using the McMaster technique. Group I was used as the infected non-treated control group. […] Animals of group VI were used as the non-infected non-treated control group. […] All procedures for agent administration, blood and tissue manipulation were in accordance with the Guide for the Care and Use of Laboratory Animals (8th edition) published in 2011 by the United States National Academy of Sciences.
On the 23rd day of the experiment, the rats were euthanized and the small intestines were removed. The small intestines were longitudinally dissected and the worm burdens were assessed.

H. nana [2] = experiment: Intestinal histopathology (H&E) in H. nana-infected rats; assay type: in vivo, Hymenolepis nana
Method: as §2
Intestines of rats from different groups were gathered and instantly fixed for 24 h in neutrally buffered 10% formalin. Wet tissue sections were dehydrated through a series of alcohols and embedded in paraffin. Serial 4 μm thick cuts were made on all paraffin blocks by rotatory microtome. Thereafter, the cuts were fixed on glass slides and the paraffin was removed. […]

[3] = cited from earlier work
[4] = In vitro release, membrane diffusion procedure, with kinetic model fitting; assay type: physicochemical; conditions: PBS pH 7.4 with 0.2% w/v SLS, 37 °C
Method: In triplicate, the release behavior of PRZ from the assembled PMMs was investigated utilizing a type 1, SR 8 Plus USP dissolution tester apparatus (Hanson Research, Chatsworth, Los Angeles, CA, USA) employing the membrane diffusion procedure. […] For establishing the sink condition, 70 mL of phosphate-buffered saline (PBS) comprising 0.2% w/v sodium lauryl sulfate (SLS) was used as the release milieu after adjusting the pH to 7.4 and setting the temperature to 37 ± 0.5 °C [27]. After fixing the filled cylinders to the USP dissolution apparatus shafts, a revolving speed of 50 rpm was applied. About 1-mL aliquots were intermittently pulled out after 0.5, 1, 2, 4, 6, 8, 12 and lastly after 24 h as prescheduled time intervals. In order to maintain the volume of the dissolution milieu at a fixed level, each aspiration was recompensed with a fresh milieu. After applying the appropriate dilution, a spectrophotometer set at λmax 263 was used to quantify PRZ in the collected samples. Afterwards, PRZ accumulative % released, as mean (±SD) values, was graphed versus time. An analogous experimentation was conducted on 2 mL of 1.5 mg/mL free PRZ aqueous suspension for comparative purposes. […] Amplification of the coefficient of determination (R^2) made the grounds for picking the most appropriate arithmetic model.

[5] = Oral pharmacokinetics in rats, LC-MS/MS, non-compartmental analysis; conditions: male, Wistar, rat, 12.5 mg/kg
Method: Twelve male Wistar rats (120–150 g), procured from the animal facility of the Research Institute of Ophthalmology (Giza, Egypt), were arbitrarily allocated into two groups of six rats each. The polyacrylic cages, which the rats were lodged in, were maintained under controlled temperature (22 ± 2 °C) and relative humidity (55 ± 5%), in the presence of day and night cycled over 12 h intervals. The animals were provided with tap water ad libitum and standard forage till the night before dosing was commenced so that a 12 h starvation period was allowed. […] Next, centrifugation at 4000 rpm was directly applied to the tubes for 10 min in order to collect plasma. The isolated plasma samples were stored at −20 °C pending assay. The current study was reviewed and approved by our institutional Animal Ethics Committee of Beni-Suef University (protocol approval code: REC-A-PhBSU-20015).
A liquid chromatography–tandem mass spectrometry (LC–MS/MS) method was employed to assay the gathered plasma samples for PRZ. An Agilent eclipse C18 column (Agilent Technologies, Santa Clara, CA, USA) with the dimensions of 3.5 µm × 4.6 mm × 100 mm was employed for chromatographic separation utilizing the isocratic elution technique. The mobile phase, consisted of methanol and 0.1% formic acid (85:15, v/v), was delivered at a flow rate of 0.8 mL/min (split ratio 1/1). A sample injection volume of 10 µL was utilized. The temperatures of the column and autosampler oven were set to 40 °C and 15 °C, respectively. Electrospray ionization (ESI) in the positive mode was used for the operation of the mass spectrometer. Nitrogen was employed as the auxiliary and nebulizer gas. Source temperature, nebulizer gas, curtain gas and heater gas (i.e., the principal operation parameters) were adjusted at 500 °C, 60 psi, 25 psi and 60 psi, respectively. The ion spray voltage was tuned at 5500 V. Entrance potential, declustering potential, collision energy and collision exit potential (i.e., the compound parameters) were 10, 130, 15, 20 V for PRZ and 10, 91, 29, 12 V for diazepam as an internal standard (IS), respectively. Quantification was performed in the multiple reactions monitoring mode with m/z 313.18 → 203.10 for PRZ and m/z 285.31→193.00 for IS. Operation of the detector was at 1900 V. Analytical data processing was carried out through Analyst software (Version 1.4.2, Applied Biosystems, MDS SCIEX, Concord, ON, Canada).
A procedure based on liquid–liquid extraction was utilized. Briefly, to a plasma sample (100 µL), 10 µL of IS solution (50 ng/mL) was spiked and 1 mL of methyl-ter-butyl ether was added. The mixture was vortexed for 30 s to ensure homogeneity and then centrifugation at 3000 rpm was applied for 10 min. Into a conical glass tube, the transparent supernatant was transmitted and left at ambient temperature until the organic layer was entirely evaporated. The residues resulting from the evaporation process were then dissolved in the mobile phase and 10 µL of the solution was subsequently injected through the autosampler.
The non-compartmental pharmacokinetic analysis function built into the Excel Add-In software, PK Solver, was employed to analyze the time course of the PRZ concentration in rat plasma for estimation of pharmacokinetic parameters. The software assesses the maximal drug concentration (Cmax, ng/mL) and elapsed time to attain such concentration (Tmax, h) directly from the plasma concentration–time curve. The software adopts the trapezoidal rule method for quantifying the area under the curve (AUC) from 0 to t (AUC0–t, ng h/mL) and from 0 to infinity (AUC0–∞, ng h/mL).

[6] = cited from earlier work; remark: listed apart in the source
H. nana eggs = experiment: In vitro ovicidal activity, Fuchsin vital stain; assay type: cell-based, Hymenolepis nana; conditions: PRZ-PMMs finding at 50 µg/mL
Method: Three tubes for each concentration of each formulation were prepared. On clean glass slides, 100 µL of eggs of the different treatments were added and stained with 20 µL of freshly prepared Fuchsin for 10 min and examined under a light microscope.

H. nana [7] = experiment: Fecal egg count and egg reduction in H. nana-infected rats; assay type: in vivo, Hymenolepis nana; conditions: for Percentage reduction of egg count: 1st and 3rd day after treatment; for Mean egg count, 1st day after treatment / Mean egg count, 3rd day after treatment: fecal egg count per gram (EPG), n = 10
Source text: as §1, §2
Fecal egg count per gram (EPG) was estimated in the different groups on day 21 and 23 of the experiment. Fecal egg reduction percentage was calculated based on the formula [34]: Fecal egg reduction percentage=EPG before treatment−EPG post treatment/EPG before treatment×100

[8] = single oral dose 25 mg/kg, 25 mg/kg
[9] = single oral dose 25 mg/kg, listed as crude PRZ, 25 mg/kg

In the case of `O=C(C1CCCCC1)N1CC(=O)N2CCc3ccccc3C2C1` (stereo not shown) [Crude PRZ, praziquantel], the “Percentage reduction of worm count” value (H. nana [1]; single oral dose 12.5 mg/kg, 12.5 mg/kg) is reported as 73.3%, the “Percentage reduction of worm count” value (H. nana [1]; single oral dose 12.5 mg/kg, listed as crude PRZ, 12.5 mg/kg) is reported as 73.3% and the “Percentage reduction of worm count” value (H. nana [1]; [8]) is reported as 100%. For the same compound, the “Percentage reduction of worm count” value (H. nana [1]; [9]) was 100%, the Worm count (H. nana [1]; single oral dose 12.5 mg/kg) was 16.60 ± 1.14 ^a,b,d,e and the Worm count (H. nana [1]; single oral dose 25 mg/kg) was 0.00 ± 0.00 ^a. The “Intestinal histopathology, parasitic sections” value (H. nana [2]; 12.5 mg/kg oral) was “submucosal granulomatous reaction in association with the detected parasitic sections”, the “Intestinal histopathology, parasitic sections” value (H. nana [2]; 25 mg/kg oral) was “no parasitic sections” and the Intrinsic hydrosolubility [3] was ~ 0.3 mg/mL. For the same compound, the “Accumulative % released at 1 h” value [4] was 98.81 ± 5.94%, the half-life ([5]; in vivo) was 1.11 ± 0.04 h and the AUC(0-inf) ([5]; po) was 566 ± 102 ng·h/mL. It also gave an AUC(0-t) ([5]; po) of 390 ± 95.3 ng·h/mL, a Cmax ([5]; po) of 290 ± 28.5 ng/mL and an MRT ([5]; po) of 3.05 ± 0.46 h. The Tmax ([5]; po) was 0.24 ± 0.03 h, the k el ([5]; po) was 0.000173 s⁻¹ and the Terminal half-life [6] was 1 to 1.5 h. For the same compound, the “Morphological changes of the eggs” value (H. nana eggs) was “mild shell deformities and embryo damage”, the “Percentage reduction of egg count” value (H. nana [7]; single oral dose 12.5 mg/kg) was 90.6–91.1% and the “Reduction of eggs output in feces” value (H. nana [7]; single oral dose 12.5 mg/kg, 21st day) was 90.6%. The “Reduction of eggs output in feces” value (H. nana [7]; single oral dose 12.5 mg/kg, 23rd day) was 91.1%, the “Mean egg count, 1st day after treatment” value (H. nana [7]; single oral dose 12.5 mg/kg) was 1033.20 ± 40.83 ^a,b,d,e and the “Mean egg count, 3rd day after treatment” value (H. nana [7]; single oral dose 12.5 mg/kg) was 966.60 ± 40.83 ^a,b,d,e. The “Percentage reduction of egg count” value (H. nana [7]; [8]) was 100%, the “Percentage reduction of egg count” value (H. nana [7]; [9]) was 100% and the “Mean egg count, 1st day after treatment” value (H. nana [7]; single oral dose 25 mg/kg) was 0.00 ± 0.00 ^a,c. For the same compound, the “Mean egg count, 3rd day after treatment” value (H. nana [7]; single oral dose 25 mg/kg) was 0.00 ± 0.00 ^a,c.
